Experimental data from patent publication US20220281848A1, “PYRAZOLE-SUBSTITUTED PYRROLIDINONES AS HERBICIDES” (FMC Corporation, priority 2019, published 2022).

Test system: plants
Assay: Test D pre-emergence, other plants of Tables D1 and D3
Assay type: in vivo
Conditions: for damage to plant, ALOMY / damage to plant, AVEFA / damage to plant, BEAVA / damage to plant, BROTE / damage to plant, BRSNN / damage to plant, HORVW / damage to plant, SINAR: pre-emergence, 100=total damage, 0=no damage; for ABUTH damage to plant (100=total damage; 0=no damage) / AMARE damage to plant (100=total damage; 0=no damage) / DIGSA damage to plant (100=total damage; 0=no damage) / ECHCG damage to plant (100=total damage; 0=no damage) / ORYSA damage to plant (100=total damage; 0=no damage) / PANMI damage to plant (100=total damage; 0=no damage) / SETFA damage to plant (100=total damage; 0=no damage): preemergent
Procedure, shortened: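 Seeds treated with herbicide safener; sown in soil; glasshouse, 16 h light, 65% humidity. Sprayed day 1 (pre) or ~day 12 (post). Spray in 0.2% v/v adjuvant. Scored 0–100 damage: 20 DAA pre, 15 d post.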

SMILES: CN1CC(c2cc(C(F)(F)F)n(C)n2)C(C(=O)Nc2cccc(F)n2)C1=O (racemic) [Compound 24]
- damage to plant, ALOMY (rate 15, 20 DAA): 0
- damage to plant, AVEFA (rate 15, 20 DAA): 0
- damage to plant, BEAVA (rate 15, 20 DAA): 0
- damage to plant, BROTE (rate 15, 20 DAA): 0
- damage to plant, BRSNN (rate 15, 20 DAA): 0
- damage to plant, HORVW (rate 15, 20 DAA): 0
- damage to plant, SINAR (rate 15, 20 DAA): 0
- damage to plant, ALOMY (rate 30, 20 DAA): 0
- damage to plant, AVEFA (rate 30, 20 DAA): 0
- damage to plant, BEAVA (rate 30, 20 DAA): 0
- damage to plant, BROTE (rate 30, 20 DAA): 0
- damage to plant, BRSNN (rate 30, 20 DAA): 0
- damage to plant, HORVW (rate 30, 20 DAA): 0
- damage to plant, SINAR (rate 30, 20 DAA): 0
- damage to plant, ALOMY (rate 60, 20 DAA): 0
- damage to plant, AVEFA (rate 60, 20 DAA): 0
- damage to plant, BEAVA (rate 60, 20 DAA): 0
- damage to plant, BROTE (rate 60, 20 DAA): 0
- damage to plant, BRSNN (rate 60, 20 DAA): 0
- damage to plant, HORVW (rate 60, 20 DAA): 0
- damage to plant, SINAR (rate 60, 20 DAA): 0
- damage to plant, ALOMY (rate 130, 20 DAA): 0
- damage to plant, AVEFA (rate 130, 20 DAA): 0
- damage to plant, BEAVA (rate 130, 20 DAA): 0
- damage to plant, BROTE (rate 130, 20 DAA): 0
- damage to plant, BRSNN (rate 130, 20 DAA): 0
- damage to plant, HORVW (rate 130, 20 DAA): 0
- damage to plant, SINAR (rate 130, 20 DAA): 0
- damage to plant, ALOMY (rate 250, 20 DAA): 0
- damage to plant, AVEFA (rate 250, 20 DAA): 0
- damage to plant, BEAVA (rate 250, 20 DAA): 0
- damage to plant, BROTE (rate 250, 20 DAA): 0
- damage to plant, BRSNN (rate 250, 20 DAA): 0
- damage to plant, HORVW (rate 250, 20 DAA): 0
- damage to plant, SINAR (rate 250, 20 DAA): 0
- damage to plant, ALOMY (rate 500, 20 DAA): 10
- damage to plant, AVEFA (rate 500, 20 DAA): 10
- damage to plant, BEAVA (rate 500, 20 DAA): 0
- damage to plant, BROTE (rate 500, 20 DAA): 0
- damage to plant, BRSNN (rate 500, 20 DAA): 0
- damage to plant, HORVW (rate 500, 20 DAA): 20
- damage to plant, SINAR (rate 500, 20 DAA): 0
- ABUTH damage to plant (100=total damage; 0=no damage) (Rates 15, 20 DAA): 0
- AMARE damage to plant (100=total damage; 0=no damage) (Rates 15, 20 DAA): 0
- DIGSA damage to plant (100=total damage; 0=no damage) (Rates 15, 20 DAA): 0
- ECHCG damage to plant (100=total damage; 0=no damage) (Rates 15, 20 DAA): 0
- ORYSA damage to plant (100=total damage; 0=no damage) (Rates 15, 20 DAA): 0
- PANMI damage to plant (100=total damage; 0=no damage) (Rates 15, 20 DAA): 0
- SETFA damage to plant (100=total damage; 0=no damage) (Rates 15, 20 DAA): 0
- ABUTH damage to plant (100=total damage; 0=no damage) (Rates 30, 20 DAA): 0
- AMARE damage to plant (100=total damage; 0=no damage) (Rates 30, 20 DAA): 0
- DIGSA damage to plant (100=total damage; 0=no damage) (Rates 30, 20 DAA): 30
- ECHCG damage to plant (100=total damage; 0=no damage) (Rates 30, 20 DAA): 10
- ORYSA damage to plant (100=total damage; 0=no damage) (Rates 30, 20 DAA): 0
- PANMI damage to plant (100=total damage; 0=no damage) (Rates 30, 20 DAA): 0
- SETFA damage to plant (100=total damage; 0=no damage) (Rates 30, 20 DAA): 0
- ABUTH damage to plant (100=total damage; 0=no damage) (Rates 60, 20 DAA): 0
- AMARE damage to plant (100=total damage; 0=no damage) (Rates 60, 20 DAA): 0
- DIGSA damage to plant (100=total damage; 0=no damage) (Rates 60, 20 DAA): 80
- ECHCG damage to plant (100=total damage; 0=no damage) (Rates 60, 20 DAA): 50
- ORYSA damage to plant (100=total damage; 0=no damage) (Rates 60, 20 DAA): 0
- PANMI damage to plant (100=total damage; 0=no damage) (Rates 60, 20 DAA): 0
- SETFA damage to plant (100=total damage; 0=no damage) (Rates 60, 20 DAA): 0
- ABUTH damage to plant (100=total damage; 0=no damage) (Rates 130, 20 DAA): 0
- AMARE damage to plant (100=total damage; 0=no damage) (Rates 130, 20 DAA): 0
- DIGSA damage to plant (100=total damage; 0=no damage) (Rates 130, 20 DAA): 90
- ECHCG damage to plant (100=total damage; 0=no damage) (Rates 130, 20 DAA): 70
- ORYSA damage to plant (100=total damage; 0=no damage) (Rates 130, 20 DAA): 0
- PANMI damage to plant (100=total damage; 0=no damage) (Rates 130, 20 DAA): 0
- SETFA damage to plant (100=total damage; 0=no damage) (Rates 130, 20 DAA): 30
- ABUTH damage to plant (100=total damage; 0=no damage) (Rates 250, 20 DAA): 20
- AMARE damage to plant (100=total damage; 0=no damage) (Rates 250, 20 DAA): 0
- DIGSA damage to plant (100=total damage; 0=no damage) (Rates 250, 20 DAA): 90
- ECHCG damage to plant (100=total damage; 0=no damage) (Rates 250, 20 DAA): 90
- ORYSA damage to plant (100=total damage; 0=no damage) (Rates 250, 20 DAA): 0
- PANMI damage to plant (100=total damage; 0=no damage) (Rates 250, 20 DAA): 0
- SETFA damage to plant (100=total damage; 0=no damage) (Rates 250, 20 DAA): 60
- ABUTH damage to plant (100=total damage; 0=no damage) (Rates 500, 20 DAA): 20
- AMARE damage to plant (100=total damage; 0=no damage) (Rates 500, 20 DAA): 10
- DIGSA damage to plant (100=total damage; 0=no damage) (Rates 500, 20 DAA): 90
- ECHCG damage to plant (100=total damage; 0=no damage) (Rates 500, 20 DAA): 90
- ORYSA damage to plant (100=total damage; 0=no damage) (Rates 500, 20 DAA): 0
- PANMI damage to plant (100=total damage; 0=no damage) (Rates 500, 20 DAA): 0
- SETFA damage to plant (100=total damage; 0=no damage) (Rates 500, 20 DAA): 90
